Data reported in PMC4421842 (Nature Communications, 2015).
Converted amounts (≈) assume the structure as drawn.

Tests used:
[1] = parameters: method as in PMID 24545057; details: dosed subcutaneously, orally or by intraperitoneal injection; cited from earlier work
[2] = test system: K. pneuomoniae, S. aureus or Mycobacterium tuberculosis; parameters: method as in PMID 24545057; details: cited from earlier work
[3] = test system: FQR S. aureus (NRS3, FQR); test: MIC, microdilution broth assay, FQR MRSA NRS3; assay type: cell-based; details: NRS3; S84L GyrA and S80F ParC; three independent replicates
[4] = Aqueous solubility determination; details: PBS, pH 7.4
Method: Three independent replicates of each compound were performed.

[5] = test system: WT S. aureus (ATCC 29213, WT); test: microbe, parasite or virus in culture; assay type: cell-based; details: WT GyrA and WT ParC, three independent replicates
[6] = biological target: T1, human topoisomerase II (Homo sapiens, UniProt P11388); test: Human topoisomerase decatenation assay; assay type: biochemical
T1 construct: purchased Inspiralis
Method: The decatenation assay was performed with the Human Topo II Decatenation Assay Kit (Inspiralis), according to the manufacturer's instructions, with minor modifications. First, a master mix was made containing 2 μl of 10 × assay buffer (500 mM Tris-HCl pH 7.5, 1250, mM NaCl, 100 mM MgCl2, 50 mM DTT, 1,000 μg ml^−1 albumin), 0.67 μl of 30 mM ATP, 1.34 μl of 0.1 ng μl^−1 kDNA, and 14.3 μl of nuclease-free water per sample is made. DMSO or 30 × compound is added to a 0.5-ml Eppendorf tube (0.67 μl per tube). The master mix is then added to each tube (18.3 μl per tube). Finally, 1 U of human topoisomerase (1 μl of 1 U μl^−1 stock) is added to each tube for a final volume of 20 μl. The tubes are then incubated at 37 °C for 30 min. Reactions are stopped by the addition of 20 μl of 24:1 chloroform:isoamyl alcohol and 20 μl of stop dye (40% sucrose, 1 mM EDTA, 100 mM Tris-HCl pH 7.5, 0.5 μg ml^−1 bromophenol blue). Samples were run on 1% agarose gels containing 0.5 μg ml^−1 ethidium bromide for 1 h at 110 V or until the dye front was approximately halfway down the gel. Gels were imaged on a Molecular Imager Gel Doc XR+ (Biorad).

T1 sequence (P11388 whole entry): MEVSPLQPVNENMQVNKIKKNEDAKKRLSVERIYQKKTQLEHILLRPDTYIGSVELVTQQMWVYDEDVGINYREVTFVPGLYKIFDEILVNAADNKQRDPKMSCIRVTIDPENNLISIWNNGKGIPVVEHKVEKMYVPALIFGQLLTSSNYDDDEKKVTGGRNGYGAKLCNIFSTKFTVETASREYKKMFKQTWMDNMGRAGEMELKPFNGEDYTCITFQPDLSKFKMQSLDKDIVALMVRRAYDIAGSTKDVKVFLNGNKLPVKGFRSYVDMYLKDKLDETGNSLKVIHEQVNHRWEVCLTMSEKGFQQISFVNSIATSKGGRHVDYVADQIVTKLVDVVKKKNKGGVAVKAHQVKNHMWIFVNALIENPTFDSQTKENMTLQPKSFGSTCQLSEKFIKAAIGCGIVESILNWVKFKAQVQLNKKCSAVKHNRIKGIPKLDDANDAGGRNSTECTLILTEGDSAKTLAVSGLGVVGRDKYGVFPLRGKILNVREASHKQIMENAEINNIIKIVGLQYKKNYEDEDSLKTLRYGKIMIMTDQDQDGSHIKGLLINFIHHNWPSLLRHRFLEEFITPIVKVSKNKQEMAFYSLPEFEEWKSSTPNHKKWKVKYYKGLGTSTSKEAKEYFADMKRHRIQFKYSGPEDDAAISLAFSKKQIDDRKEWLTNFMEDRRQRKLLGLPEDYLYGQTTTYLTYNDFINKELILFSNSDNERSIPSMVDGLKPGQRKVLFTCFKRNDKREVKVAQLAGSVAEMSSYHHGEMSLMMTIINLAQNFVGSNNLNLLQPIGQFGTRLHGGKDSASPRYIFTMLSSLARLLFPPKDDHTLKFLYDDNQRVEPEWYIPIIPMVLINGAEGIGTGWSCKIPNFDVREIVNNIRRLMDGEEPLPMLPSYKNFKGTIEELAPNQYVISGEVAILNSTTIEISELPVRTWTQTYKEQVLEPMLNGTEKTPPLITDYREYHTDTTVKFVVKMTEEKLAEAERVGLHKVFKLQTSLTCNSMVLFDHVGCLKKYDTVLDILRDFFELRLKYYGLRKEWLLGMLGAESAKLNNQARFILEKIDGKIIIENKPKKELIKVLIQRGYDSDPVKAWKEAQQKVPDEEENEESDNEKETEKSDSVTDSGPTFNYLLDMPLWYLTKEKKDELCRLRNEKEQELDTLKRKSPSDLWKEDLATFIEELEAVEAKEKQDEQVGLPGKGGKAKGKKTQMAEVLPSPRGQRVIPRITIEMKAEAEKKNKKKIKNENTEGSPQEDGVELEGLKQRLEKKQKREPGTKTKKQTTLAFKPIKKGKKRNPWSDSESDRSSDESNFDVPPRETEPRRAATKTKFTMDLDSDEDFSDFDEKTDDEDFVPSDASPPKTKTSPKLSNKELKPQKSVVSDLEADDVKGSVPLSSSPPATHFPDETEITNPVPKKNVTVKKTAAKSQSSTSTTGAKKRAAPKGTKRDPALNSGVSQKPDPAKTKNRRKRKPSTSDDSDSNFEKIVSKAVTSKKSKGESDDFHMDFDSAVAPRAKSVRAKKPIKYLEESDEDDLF

Cc1cc(=O)n2c3c(c4c(cc13)c(CO)cc(=O)n4C)OC2 [NM, Nybomycin]
tolerability in mice [1]: well tolerated | activity in mice infected with various bacteria [2]: no activity

CCCc1cc(=O)n(C)c2c3c4c(cc12)c(CCC)cc(=O)n4CO3 [compound 14]
MIC against S. aureus NRS3 [3]: 32 µg/mL (≈ 94.6 µM) | solubility at 1 h [4]: < 1 µM | MIC against S. aureus 29213 ([5]; ATCC 29213): > 32 µg/mL | MIC ([5]; Staphylococcus aureus, ATCC29213, ATCC 29213, read-out: MIC against S. aureus 29213): > 32 µg/mL

COc1cccc2c1C(=O)c1c(O)c3c(c(O)c1C2=O)C[C@@](O)(C(=O)CO)C[C@@H]3O[C@H]1C[C@H](N)[C@H](O)[C@H](C)O1 [doxorubicin, reference compound]
concentration inhibiting human topoisomerase II [6]: 3 µM
